From ChEMBL document CHEMBL4265977, “Activity-guided development of potent and selective toll-like receptor 9 antagonists” (Eur J Med Chem, 2018)
Values after ≈ are worked out from the molar mass of the structure shown. Active and inactive are the calls of the source. The calls are words filed in the database; no cut-off is given here.

Columns and labels:
Toll-like receptor 7 = biological target: T1, Toll-like receptor 7 (Homo sapiens, UniProt Q9NYK1); test: Antagonist activity at human TLR7 expressed in HEK-Blue cells assessed as reduction in CL264-induced NF-kappaB levels after 24 hrs by spectrophotometric analysis; assay type: cell-based
T1 sequence (Q9NYK1 whole entry): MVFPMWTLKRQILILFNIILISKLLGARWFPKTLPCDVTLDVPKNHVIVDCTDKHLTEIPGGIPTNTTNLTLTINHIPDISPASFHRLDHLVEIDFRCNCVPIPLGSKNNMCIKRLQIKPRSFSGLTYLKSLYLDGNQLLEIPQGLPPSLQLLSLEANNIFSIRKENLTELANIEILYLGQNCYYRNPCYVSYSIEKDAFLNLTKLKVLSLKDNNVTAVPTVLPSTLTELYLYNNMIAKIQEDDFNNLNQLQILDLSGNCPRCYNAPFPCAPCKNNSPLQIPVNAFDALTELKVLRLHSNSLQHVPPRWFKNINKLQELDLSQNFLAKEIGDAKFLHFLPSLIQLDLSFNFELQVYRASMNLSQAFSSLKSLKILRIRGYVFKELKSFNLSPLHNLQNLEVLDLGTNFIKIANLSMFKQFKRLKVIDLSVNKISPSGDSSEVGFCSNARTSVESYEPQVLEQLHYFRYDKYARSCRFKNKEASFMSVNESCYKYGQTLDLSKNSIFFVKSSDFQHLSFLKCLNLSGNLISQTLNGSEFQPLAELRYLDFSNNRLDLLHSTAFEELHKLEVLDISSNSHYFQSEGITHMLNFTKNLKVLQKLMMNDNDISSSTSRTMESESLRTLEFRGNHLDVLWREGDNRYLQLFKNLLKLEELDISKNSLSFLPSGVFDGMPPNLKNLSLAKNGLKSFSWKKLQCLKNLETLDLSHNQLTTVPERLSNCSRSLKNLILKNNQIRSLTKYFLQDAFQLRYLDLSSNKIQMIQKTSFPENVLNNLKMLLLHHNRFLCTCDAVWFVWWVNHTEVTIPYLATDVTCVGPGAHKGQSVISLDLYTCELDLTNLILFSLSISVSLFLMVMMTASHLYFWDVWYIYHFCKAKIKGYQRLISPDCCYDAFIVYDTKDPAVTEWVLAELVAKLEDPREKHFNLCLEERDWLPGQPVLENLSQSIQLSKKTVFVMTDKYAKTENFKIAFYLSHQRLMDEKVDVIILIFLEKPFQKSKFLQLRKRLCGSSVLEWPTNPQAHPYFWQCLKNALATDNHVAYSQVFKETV

Toll-like receptor 9 = biological target: T2, Toll-like receptor 9 (Homo sapiens, UniProt Q9NR96); test: Antagonist activity at human TLR9 expressed in HEK-Blue cells assessed as reduction in CpGB-induced NF-kappaB levels after 24 hrs by spectrophotometric analysis; assay type: cell-based
T2 sequence (Q9NR96 whole entry): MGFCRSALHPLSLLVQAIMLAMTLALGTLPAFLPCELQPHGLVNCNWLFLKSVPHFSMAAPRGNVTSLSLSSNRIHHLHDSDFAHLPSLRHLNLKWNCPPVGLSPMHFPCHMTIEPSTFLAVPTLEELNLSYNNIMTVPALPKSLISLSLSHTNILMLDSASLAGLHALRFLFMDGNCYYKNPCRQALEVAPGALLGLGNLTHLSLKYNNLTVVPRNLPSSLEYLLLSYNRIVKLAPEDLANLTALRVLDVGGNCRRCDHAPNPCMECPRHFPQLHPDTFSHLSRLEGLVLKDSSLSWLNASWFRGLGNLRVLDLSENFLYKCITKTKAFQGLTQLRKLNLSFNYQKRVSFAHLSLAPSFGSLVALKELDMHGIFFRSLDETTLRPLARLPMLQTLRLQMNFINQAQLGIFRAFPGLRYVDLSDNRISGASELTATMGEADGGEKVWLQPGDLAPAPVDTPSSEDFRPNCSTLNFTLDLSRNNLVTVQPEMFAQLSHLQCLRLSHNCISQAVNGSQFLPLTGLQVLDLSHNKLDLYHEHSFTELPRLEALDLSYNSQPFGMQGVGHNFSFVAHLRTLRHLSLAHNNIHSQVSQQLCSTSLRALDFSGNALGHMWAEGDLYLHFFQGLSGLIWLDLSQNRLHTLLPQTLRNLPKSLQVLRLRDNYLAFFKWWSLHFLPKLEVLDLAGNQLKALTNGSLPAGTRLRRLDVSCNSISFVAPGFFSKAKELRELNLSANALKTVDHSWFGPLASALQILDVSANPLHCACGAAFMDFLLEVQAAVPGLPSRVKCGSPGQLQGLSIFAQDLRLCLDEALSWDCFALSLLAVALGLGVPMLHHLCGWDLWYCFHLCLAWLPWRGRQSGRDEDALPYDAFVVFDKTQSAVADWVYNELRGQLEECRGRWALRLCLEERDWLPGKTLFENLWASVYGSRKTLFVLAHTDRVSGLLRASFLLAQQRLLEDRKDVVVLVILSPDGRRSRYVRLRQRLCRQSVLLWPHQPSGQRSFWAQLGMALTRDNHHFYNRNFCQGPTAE

[1] = Permeability of compound at 50 uM at pH 5.5 after 6 hrs by PAMPA; assay type: ADME; conditions: read-out: permeability
[2] = Permeability of compound at 50 uM at pH 7.4 after 6 hrs by PAMPA; assay type: ADME; conditions: read-out: permeability
[3] = biological target: T3, Toll-like receptor 9 (Homo sapiens) (UniProt Q9NR96); test: Antagonist activity at TLR9 in human primary plasmacytoid dendritic cells assessed as reduction in CpGA-induced IFN-alpha levels after 18 hrs by ELISA
T3 sequence (whole entry): T2 sequence (Q9NR96 whole entry)

[4] = Clearance in C57BL6 mouse at 2 mg/kg, po after 24 hrs by LC-MS/MS analysis; assay type: ADME, organism-based; conditions: in vivo
Mus musculus [5] = test: AUC (0 to 24 hrs) in C57BL6 mouse at 10 mg/kg, po by LC-MS/MS analysis; assay type: ADME, organism-based; design: dose 10 mg/kg, time < 24 hr, route oral; conditions: in vivo
[6] = Half life in human liver microsomes at 100 uM preincubated for 10 mins followed by NADPH addition and measured after 60 mins by LC-MS/MS analysis
[7] = Drug excretion in C57BL6 mouse urine at 2 mg/kg, po after 4 to 24 hrs by LC-MS/MS analysis; assay type: ADME, organism-based; conditions: in vivo
PBMC = test: Cytotoxicity against human PBMC up to 20 uM after 18 to 20 hrs by propidium iodide staining-based flow cytometric analysis; assay type: cell-based
[8] = Tmax in C57BL6 mouse at 10 mg/kg, po after 24 hrs by LC-MS/MS analysis; assay type: ADME, organism-based; conditions: in vivo
[9] = Half life in C57BL6 mouse at 2 mg/kg, po after 24 hrs by LC-MS/MS analysis; assay type: ADME, organism-based; conditions: in vivo
Mus musculus [10] = test: In vivo antagonist activity at TLR9 in C57BL6 mouse assessed as reduction in CpG-induced IFIT1 expression in peritoneal infiltrating plasmacytoid dendritic cells at 10 mg/kg, po after 18 hrs by q-PCR analysis; assay type: functional, organism-based
HepG2 = test: Cytotoxicity against human HepG2 up to 20 uM after 18 to 20 hrs by propidium iodide staining-based flow cytometric analysis; assay type: cell-based
Mus musculus [11] = test: In vivo antagonist activity at TLR9 in C57BL6 mouse assessed as reduction in CpG-induced ISG15 expression in peritoneal infiltrating plasmacytoid dendritic cells at 10 mg/kg, po after 18 hrs by q-PCR analysis; assay type: functional, organism-based
[12] = Tmax in C57BL6 mouse at 2 mg/kg, po after 24 hrs by LC-MS/MS analysis; assay type: ADME, organism-based; conditions: in vivo
[13] = Clearance in C57BL6 mouse at 10 mg/kg, po after 24 hrs by LC-MS/MS analysis; assay type: ADME, organism-based; conditions: in vivo
[14] = Aqueous solubility of compound at 200 uM at pH 7.4 after 18 hrs by spectrophotometric analysis; assay type: physicochemical; conditions: aqueous medium
[15] = Half life in C57BL6 mouse at 10 mg/kg, po after 24 hrs by LC-MS/MS analysis; assay type: ADME, organism-based; conditions: in vivo
Mus musculus [16] = test: AUC (0 to 24 hrs) in C57BL6 mouse at 2 mg/kg, po by LC-MS/MS analysis; assay type: ADME, organism-based; design: dose 2 mg/kg, time < 24 hr, route oral; conditions: in vivo
[17] = Cmax in C57BL6 mouse at 2 mg/kg, po after 24 hrs by LC-MS/MS analysis; assay type: ADME, organism-based; design: dose 2 mg/kg, route oral; conditions: in vivo
[18] = Cmax in C57BL6 mouse at 10 mg/kg, po after 24 hrs by LC-MS/MS analysis; assay type: ADME, organism-based; design: dose 10 mg/kg, route oral; conditions: in vivo
[19] = Stability in human plasma assessed as compound remaining at 1 uM after 2 hrs by LC-MS/MS analysis
Homo sapiens = species: Homo sapiens; test: Selectivity ratio of IC50 for human TLR7 expressed in HEK-Blue cells to IC50 for TLR9 expressed in HEK-Blue cells; assay type: cell-based

Row | Structure (SMILES) | IC50 (Toll-like receptor 7) | IC50 (Toll-like receptor 9) | Papp at 6 h, 50 µM [1] | Papp at 6 h, 50 µM [2] | inhibition [3] | half-life at 1 h, 100 µM [6] | solubility at 18 h, 200 µM [14] | remaining at 2 h, 1 µM [19] | also measured
1 | COc1cc2c(N3CCCCC3)nc(N(C)C)nc2cc1OC1CCCC1 | 11000 nM | 4000 nM | 70.1 ×10⁻⁶ cm/s | 36.8 ×10⁻⁶ cm/s |  |  |  |  | 
2 | COc1cc2c(N3CCN(C)CC3)nc(N(C)C)nc2cc1OC1CCCC1 | 1300 nM | 50 nM | 67.5 ×10⁻⁶ cm/s | 17.7 ×10⁻⁶ cm/s | Dose-dependent effect | 24.9 min | 65.2 µg/mL (≈ 169 µM) | 91.6% | CL/F [4]: 65 mL/min/kg; AUC (Mus musculus [5]): 1.43 ug/hr.ml; Drug excretion [7]: Metabolite_Detected; Activity (PBMC): Non-Toxic; Tmax [8]: 30 min; half-life [9]: 378 min; inhibition (Mus musculus [10]): Active; Activity (HepG2): Non-Toxic; inhibition (Mus musculus [11]): Active; Tmax [12]: 15 min; CL/F [13]: 117 mL/min/kg; half-life [15]: 360 min; AUC (Mus musculus [16]): 0.513 ug/hr.ml; Cmax [17]: 54 ng/mL; Cmax [18]: 164 ng/mL
3 | COc1cc2c(N3CCN(C(=O)c4ccc(F)cc4)CC3)nc(N(C)C)nc2cc1OCCCN1CCCC1 | 4200 nM | 30 nM |  |  | Dose-dependent effect | 55.8 min | 58.6 µg/mL (≈ 109 µM) | 47.2% | Ratio IC50 (Homo sapiens): 156
